Measured values as given in patent US10421754B2, “Quinazoline derivative” (CSPC ZHONGQI PHARMACEUTICAL TECHNOLOGY (SHIJIAZHUANG) CO., …, priority 2014, dated 2019).

What was measured:
[1] = test system: CFPAC-1; test: In vitro cell experiment (MTT), CFPAC-1; assay type: cell-based; details: 72 h, human pancreatic carcinoma cells
Method: (§1) Cells in logarithmic growth phase were seeded at a certain density in a 96-well plate (200 μL/well). The cells were allowed to grow for 24 h and subsequently treated with different concentrations of drugs (including a blank group and a control group) and incubated for 72 h at 37° C. Each concentration in a given experiment was tested in triplicate. After 72 h of exposure, 20 μL of the MTT labeling reagent was added to the medium (the final concentration of MTT was 0.5 mg/mL), and the cells were incubated for additional 4 h at 37° C. Following this process, 180 μL of the medium was removed and 130 μL of DMSO was added to each well, or the medium was completely removed and 150 μL of DMSO was added to each well. Then the plate was shaken and mixed in a micro-oscillator. Finally the optical density (OD) of each sample was measured in a micro-plate reader at 550 nm. Cell inhibition rate was calculated according to the following formula: […]
(§2) According to cell inhibition rates, IC50 was calculated by LOGIT method. The experiments were repeated twice and the data was expressed as means±SD.

[2] = Mouse maximum tolerated dose (MTD) experiment; details: in vivo, mice, oral, administered 7 days then observed 7 days
Method: In the mouse MTD experiment, the mice were administrated with the present compounds.
Healthy mice, having a small difference in body's weights, were chosen. The chosen mice were placed in different layers of cages according to their body's weights. In each layer, the mice were randomly divided into groups. In each group, there were three mice.
The administration dosages were 1000, 500, 250, 125, 62.5 and 31.25 mg/kg respectively and each two dosages differed by a factor of 2. For each of administration dosages, three mice were allotted. The mice were administrated with the present compounds for 7 days and then observed for the next 7 days without the present compounds.
The present compounds were orally administrated with the mice according to the administration dosage and the body weight.

[3] = test system: A549; test: In vitro cell experiment (MTT), A549; assay type: cell-based; details: 72 h, human non-small-cell lung carcinoma cells (EGFR1 wildtype)
Method: as §1, §2

[4] = target: FLT-1 (Homo sapiens, UniProt P17948); test: In vitro enzyme experiment (ELISA), FLT-1; assay type: biochemical; details: Poly (Glu, Tyr)4:1 substrate, 5 μM ATP
Method: FLT-1: Human vascular endothelial growth factor receptor 1
(§3) ELISA: The enzyme plate was coated by enzyme reaction substrate (Poly (Glu, Tyr)4:1) at a density of 20 μg/ml. Then the enzyme, the sample and 5 μM ATP were mixed in the well to react. After the reaction, the substrate phosphorylation was detected by anti-phosphotyrosine monoclonal antibody (4G10). In the next step, the goat-anti-mouse IgG linking with horse radish peroxidase (HRP) and tetramethylbenzidine (TMB) were added sequentially in the well to evaluate the level of substrate phosphorylation by the degree of color depth. In the experiment, a blank group without tyrosine kinase and a control group with the corresponding concentration of DMSO were established. Finally, 50 μL/well of H2SO4 at a concentration of 0.18M was added in each well to stop the reaction. The optical density (OD) of each sample was measured in a micro-plate reader at 450 nm.
(§4) The relative inhibition rate of the compound against tyrosine kinase protein was determined.
(§5) According to the inhibition rates at different concentrations, IC50 was calculated by LOGIT method. The experiments were repeated three times, and the average of three IC50 values was the final index to evaluate the ability of inhibition.

[5] = target: FGFR-1 (Homo sapiens, UniProt P11362); test: In vitro enzyme experiment (ELISA), FGFR-1; assay type: biochemical; details: Poly (Glu, Tyr)4:1 substrate, 5 μM ATP
FGFR-1, sequence (P11362 22-822, species assumed): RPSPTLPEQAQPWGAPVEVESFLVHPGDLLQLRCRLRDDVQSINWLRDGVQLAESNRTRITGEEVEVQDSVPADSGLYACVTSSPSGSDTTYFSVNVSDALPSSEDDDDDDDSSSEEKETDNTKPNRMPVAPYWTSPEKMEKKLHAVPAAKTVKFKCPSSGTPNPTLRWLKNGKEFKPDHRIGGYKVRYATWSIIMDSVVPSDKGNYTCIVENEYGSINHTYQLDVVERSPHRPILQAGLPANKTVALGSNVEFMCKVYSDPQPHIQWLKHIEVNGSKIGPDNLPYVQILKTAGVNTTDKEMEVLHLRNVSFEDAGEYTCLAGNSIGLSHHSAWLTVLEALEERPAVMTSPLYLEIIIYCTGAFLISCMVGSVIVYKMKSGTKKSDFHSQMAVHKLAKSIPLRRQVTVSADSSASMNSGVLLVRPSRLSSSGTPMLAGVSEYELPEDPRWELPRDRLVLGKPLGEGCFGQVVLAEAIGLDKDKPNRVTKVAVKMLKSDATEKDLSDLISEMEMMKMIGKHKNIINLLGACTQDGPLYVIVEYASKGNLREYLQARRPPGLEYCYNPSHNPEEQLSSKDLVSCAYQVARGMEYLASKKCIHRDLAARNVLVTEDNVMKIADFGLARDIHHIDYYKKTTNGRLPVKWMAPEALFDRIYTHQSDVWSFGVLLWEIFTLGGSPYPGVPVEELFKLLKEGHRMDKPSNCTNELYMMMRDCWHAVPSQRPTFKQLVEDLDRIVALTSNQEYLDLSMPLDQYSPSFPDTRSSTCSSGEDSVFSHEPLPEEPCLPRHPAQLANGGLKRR
Method: FGFR-1: Fibroblast growth factor receptor 1
as §3, §4, §5

[6] = target: KDR (Homo sapiens, UniProt P35968); test: In vitro enzyme experiment (ELISA), KDR; assay type: biochemical; details: Poly (Glu, Tyr)4:1 substrate, 5 μM ATP
KDR, sequence (P35968 20-1356): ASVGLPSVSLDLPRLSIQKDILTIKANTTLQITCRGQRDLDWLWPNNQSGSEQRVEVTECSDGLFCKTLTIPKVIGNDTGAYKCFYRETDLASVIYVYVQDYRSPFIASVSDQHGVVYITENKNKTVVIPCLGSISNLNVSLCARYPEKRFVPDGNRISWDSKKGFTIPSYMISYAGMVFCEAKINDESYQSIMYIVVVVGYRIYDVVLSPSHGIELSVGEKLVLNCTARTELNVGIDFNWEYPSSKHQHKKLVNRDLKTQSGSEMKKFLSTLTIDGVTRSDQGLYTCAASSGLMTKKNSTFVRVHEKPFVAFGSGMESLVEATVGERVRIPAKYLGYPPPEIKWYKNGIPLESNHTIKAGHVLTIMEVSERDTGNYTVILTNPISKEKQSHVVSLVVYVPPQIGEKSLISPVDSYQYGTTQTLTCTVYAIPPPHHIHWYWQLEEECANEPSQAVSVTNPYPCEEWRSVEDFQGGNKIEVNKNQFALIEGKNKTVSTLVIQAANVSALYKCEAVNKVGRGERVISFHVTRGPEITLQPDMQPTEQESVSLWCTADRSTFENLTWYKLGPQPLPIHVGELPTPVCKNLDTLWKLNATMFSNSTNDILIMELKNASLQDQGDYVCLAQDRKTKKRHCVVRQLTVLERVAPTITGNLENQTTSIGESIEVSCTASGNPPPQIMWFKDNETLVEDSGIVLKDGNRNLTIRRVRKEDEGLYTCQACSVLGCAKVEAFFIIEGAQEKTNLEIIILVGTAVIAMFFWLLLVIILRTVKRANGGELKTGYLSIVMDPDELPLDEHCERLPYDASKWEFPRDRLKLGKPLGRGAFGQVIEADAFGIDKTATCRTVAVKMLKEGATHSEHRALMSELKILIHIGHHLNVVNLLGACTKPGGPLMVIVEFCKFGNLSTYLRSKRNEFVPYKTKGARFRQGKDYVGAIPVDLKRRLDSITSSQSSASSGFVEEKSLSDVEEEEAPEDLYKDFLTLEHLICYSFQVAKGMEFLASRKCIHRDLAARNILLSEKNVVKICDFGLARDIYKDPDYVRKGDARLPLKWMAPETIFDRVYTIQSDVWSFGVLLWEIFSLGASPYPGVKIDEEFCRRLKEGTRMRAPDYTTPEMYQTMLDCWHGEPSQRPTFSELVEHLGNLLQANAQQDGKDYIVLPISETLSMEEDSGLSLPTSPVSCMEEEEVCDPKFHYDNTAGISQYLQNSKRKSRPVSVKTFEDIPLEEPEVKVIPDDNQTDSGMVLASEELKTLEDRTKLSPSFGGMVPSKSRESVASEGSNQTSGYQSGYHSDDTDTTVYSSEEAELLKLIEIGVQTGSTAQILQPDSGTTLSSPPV
Method: KDR: Human vascular endothelial growth factor receptor 2
as §3, §4, §5

[7] = test system: HUVEC; test: In vitro cell experiment (MTT), HUVEC; assay type: cell-based; details: 72 h, human umbilical vein endothelial cell (KDR overexpressing)
Method: as §1, §2

[8] = test system: HCC827; test: In vitro cell experiment (MTT), HCC827; assay type: cell-based; details: 72 h, human non-small cell lung carcinoma (EGFR1 19 exon mutation)
Method: as §1, §2

[9] = target: EGFR (Homo sapiens, UniProt P00533); test: In vitro enzyme experiment (ELISA), EGFR; assay type: biochemical; details: Poly (Glu, Tyr)4:1 substrate, 5 μM ATP
Method: EGFR: Human epidermal growth factor receptor 1
as §3, §4, §5

[10] = test system: PC-9; test: In vitro cell experiment (MTT), PC-9; assay type: cell-based; details: 72 h, human non-small-cell lung carcinoma cells (EGFR1 19 exon mutation)
Method: as §1, §2

[11] = test system: Eca109; test: In vitro cell experiment (MTT), Eca109; assay type: cell-based; details: ECa-109, 72 h, human esophageal carcinoma cells
Method: as §1, §2

[12] = test system: SGC7901; test: In vitro cell experiment (MTT), SGC7901; assay type: cell-based; details: SGC-7901, 72 h, human gastric carcinoma cells
Method: as §1, §2

[13] = test system: H292; test: In vitro cell experiment (MTT), H292; assay type: cell-based; details: NCI-H292, 72 h, human lung carcinoma cells (EGFR1 overexpressing)
Method: as §1, §2

[14] = test system: TT; test: In vitro cell experiment (MTT), TT; assay type: cell-based; details: 72 h, human thyroid carcinoma cells (RET C634W mutation)
Method: as §1, §2

[15] = test system: A375; test: In vitro cell experiment (MTT), A375; assay type: cell-based; details: A-375, 72 h, human melanoma cells (KDR expressing)
Method: as §1, §2

[16] = test system: A498; test: In vitro cell experiment (MTT), A498; assay type: cell-based; details: 72 h, human renal carcinoma cells
Method: as §1, §2

[17] = test system: SK-OV-3; test: In vitro cell experiment (MTT), SK-OV-3; assay type: cell-based; details: 72 h, human ovarian carcinoma cells (EGFR2 overexpressing)
Method: as §1, §2

[18] = target: PDGFRβ (Homo sapiens, UniProt P09619); test: In vitro enzyme experiment (ELISA), PDGFRβ; assay type: biochemical; details: Poly (Glu, Tyr)4:1 substrate, 5 μM ATP
PDGFRβ, sequence (P09619 33-1106, species assumed): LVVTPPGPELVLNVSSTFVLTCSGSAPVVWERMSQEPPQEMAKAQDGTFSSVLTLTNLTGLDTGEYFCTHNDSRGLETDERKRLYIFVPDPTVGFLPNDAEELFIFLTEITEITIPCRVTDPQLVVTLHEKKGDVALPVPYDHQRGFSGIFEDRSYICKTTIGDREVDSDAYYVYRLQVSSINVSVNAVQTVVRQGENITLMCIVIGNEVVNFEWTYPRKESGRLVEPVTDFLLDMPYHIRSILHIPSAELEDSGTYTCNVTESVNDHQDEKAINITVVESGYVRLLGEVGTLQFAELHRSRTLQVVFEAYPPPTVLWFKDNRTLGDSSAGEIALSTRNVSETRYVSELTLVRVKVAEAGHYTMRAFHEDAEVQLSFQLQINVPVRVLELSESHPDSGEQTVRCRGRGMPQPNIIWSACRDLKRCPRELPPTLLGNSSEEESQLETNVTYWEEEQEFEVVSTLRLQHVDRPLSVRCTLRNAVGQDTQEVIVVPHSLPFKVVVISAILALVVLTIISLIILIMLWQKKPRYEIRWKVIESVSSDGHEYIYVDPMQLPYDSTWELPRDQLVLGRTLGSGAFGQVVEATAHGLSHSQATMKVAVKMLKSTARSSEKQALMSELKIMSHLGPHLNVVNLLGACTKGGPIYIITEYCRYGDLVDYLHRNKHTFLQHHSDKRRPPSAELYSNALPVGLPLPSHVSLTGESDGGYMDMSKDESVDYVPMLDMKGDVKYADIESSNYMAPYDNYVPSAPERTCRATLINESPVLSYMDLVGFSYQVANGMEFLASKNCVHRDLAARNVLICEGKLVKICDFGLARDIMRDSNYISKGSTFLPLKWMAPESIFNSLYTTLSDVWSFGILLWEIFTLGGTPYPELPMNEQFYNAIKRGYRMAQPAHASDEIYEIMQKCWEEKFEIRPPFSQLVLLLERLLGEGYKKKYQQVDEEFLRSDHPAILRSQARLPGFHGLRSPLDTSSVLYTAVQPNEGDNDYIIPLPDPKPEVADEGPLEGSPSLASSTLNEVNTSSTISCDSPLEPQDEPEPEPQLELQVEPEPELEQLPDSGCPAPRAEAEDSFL
Method: PDGFRβ: Platelet-derived growth factor receptor β
as §3, §4, §5

[19] = test system: HT-29; test: In vitro cell experiment (MTT), HT-29; assay type: cell-based; details: 72 h, human colon carcinoma cells (expressing both c-KIT and PDGFR)
Method: as §1, §2

[20] = test system: 3T3swiss; test: In vitro cell experiment (MTT), 3T3swiss; assay type: cell-based; details: Fibroblast, 72 h, mouse fibroblasts (PDGFR overexpressing)
Method: as §1, §2

[21] = test system: HCT116; test: In vitro cell experiment (MTT), HCT116; assay type: cell-based; details: HCT-116, 72 h, human colon carcinoma cells
Method: as §1, §2

[22] = test system: A431; test: In vitro cell experiment (MTT), A431; assay type: cell-based; details: A-431, 72 h, human epidermoid carcinoma (EGFR1 overexpressing)
Method: as §1, §2

[23] = test system: Bel-7402; test: In vitro cell experiment (MTT), Bel-7402; assay type: cell-based; details: 72 h, human hepatoma carcinoma cells
Method: as §1, §2

[24] = target: AXL (Homo sapiens, UniProt P30530); test: In vitro enzyme experiment (ELISA), AXL; assay type: biochemical; details: Poly (Glu, Tyr)4:1 substrate, 5 μM ATP
Method: as §3, with “AXL: Anaplastic lymphoma kinase Methods: ELISA:” for “ELISA:”, “nm. The relative inhibition rate of the compound against tyrosine kinase protein was determined. According to the inhibition rates at different concentrations, IC50 was calculated by LOGIT method. The experiments were repeated three times, and the average of three IC50 values was the final index to evaluate the ability of inhibition.” for “nm.”

[25] = target: BTK (Homo sapiens, UniProt Q06187); test: In vitro enzyme experiment (ELISA), BTK; assay type: biochemical; details: Poly (Glu, Tyr)4:1 substrate, 5 μM ATP
BTK, sequence (Q06187 whole entry, species assumed): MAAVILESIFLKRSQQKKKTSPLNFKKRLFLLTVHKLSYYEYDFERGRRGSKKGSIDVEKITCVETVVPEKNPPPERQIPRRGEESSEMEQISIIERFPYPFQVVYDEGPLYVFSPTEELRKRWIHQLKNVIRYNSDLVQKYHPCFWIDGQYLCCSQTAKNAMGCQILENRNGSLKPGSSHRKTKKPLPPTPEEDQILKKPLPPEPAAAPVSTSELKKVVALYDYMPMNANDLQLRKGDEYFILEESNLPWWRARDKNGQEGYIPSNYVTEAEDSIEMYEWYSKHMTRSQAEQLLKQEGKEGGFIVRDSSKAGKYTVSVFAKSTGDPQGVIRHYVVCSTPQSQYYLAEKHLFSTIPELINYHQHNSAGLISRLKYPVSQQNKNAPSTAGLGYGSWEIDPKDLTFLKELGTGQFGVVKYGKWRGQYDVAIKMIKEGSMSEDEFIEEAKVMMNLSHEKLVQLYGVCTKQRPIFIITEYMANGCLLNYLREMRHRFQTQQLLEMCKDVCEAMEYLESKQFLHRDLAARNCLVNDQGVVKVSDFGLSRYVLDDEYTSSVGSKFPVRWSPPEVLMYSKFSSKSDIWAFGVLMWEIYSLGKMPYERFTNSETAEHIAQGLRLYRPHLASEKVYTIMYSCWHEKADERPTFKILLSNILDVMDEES
Method: BTK: Bruton tyrosine kinase
as §3, §4, §5

[26] = target: RET (Homo sapiens, UniProt P07949); test: In vitro enzyme experiment (ELISA), RET; assay type: biochemical; details: Poly (Glu, Tyr)4:1 substrate, 5 μM ATP
RET, sequence (P07949 29-1114, species assumed): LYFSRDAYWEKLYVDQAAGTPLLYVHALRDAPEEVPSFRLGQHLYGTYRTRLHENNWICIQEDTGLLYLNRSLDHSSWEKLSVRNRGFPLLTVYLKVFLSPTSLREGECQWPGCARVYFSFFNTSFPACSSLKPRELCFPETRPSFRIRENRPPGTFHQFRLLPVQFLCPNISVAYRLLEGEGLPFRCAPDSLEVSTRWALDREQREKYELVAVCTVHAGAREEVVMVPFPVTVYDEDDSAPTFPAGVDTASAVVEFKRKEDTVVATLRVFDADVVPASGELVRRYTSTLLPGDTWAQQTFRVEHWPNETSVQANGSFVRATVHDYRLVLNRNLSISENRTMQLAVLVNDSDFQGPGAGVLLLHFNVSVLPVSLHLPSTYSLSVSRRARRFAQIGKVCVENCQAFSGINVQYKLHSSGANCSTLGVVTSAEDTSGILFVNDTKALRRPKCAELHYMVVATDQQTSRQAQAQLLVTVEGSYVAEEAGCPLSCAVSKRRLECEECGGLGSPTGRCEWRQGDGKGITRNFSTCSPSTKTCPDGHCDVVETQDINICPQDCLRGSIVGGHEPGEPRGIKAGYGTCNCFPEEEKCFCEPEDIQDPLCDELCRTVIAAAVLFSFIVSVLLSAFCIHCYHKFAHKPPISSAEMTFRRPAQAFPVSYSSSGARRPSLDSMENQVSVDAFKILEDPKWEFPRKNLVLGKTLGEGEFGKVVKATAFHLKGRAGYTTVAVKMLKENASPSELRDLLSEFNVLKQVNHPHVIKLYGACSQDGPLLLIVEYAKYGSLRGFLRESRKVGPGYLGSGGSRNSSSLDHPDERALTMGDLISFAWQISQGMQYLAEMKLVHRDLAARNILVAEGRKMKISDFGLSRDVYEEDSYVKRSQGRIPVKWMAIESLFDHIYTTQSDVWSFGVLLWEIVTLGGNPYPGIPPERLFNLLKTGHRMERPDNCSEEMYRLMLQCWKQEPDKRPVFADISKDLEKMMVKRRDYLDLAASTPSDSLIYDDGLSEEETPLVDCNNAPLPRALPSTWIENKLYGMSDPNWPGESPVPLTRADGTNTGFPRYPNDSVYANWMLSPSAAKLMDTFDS
Method: RET: A receptor involved in thyroid cancer
as §3, §4, §5

COc1cc2c(Nc3ccc(Br)cc3F)ncnc2cc1OCCCCN1CCCC1 [Compound 30, 4-(4-bromo-2-fluoroanilino)-6-methoxy-7-(4-(pyrrolidin-1-yl)butoxy)quinazoline]
IC50 [1]: 5150 nM
MTD [2]: 250 to 500 mg/kg
IC50 [3]: 1510 nM
IC50 [4]: 25.9 nM
IC50 [5]: 25.8 nM
IC50 [6]: 15.7 nM
IC50 [7]: 27.5 nM
IC50 [8]: 0.5 nM
IC50 [9]: 118 nM
IC50 [10]: 7 nM
IC50 [11]: 5520 nM
IC50 [12]: 4190 nM
IC50 [13]: 43.2 nM
IC50 [14]: 126 nM
IC50 [15]: 196 nM
IC50 [16]: 2880 nM
IC50 [17]: 2500 nM
IC50 [18]: 247 nM
IC50 [19]: 2190 nM
IC50 [20]: 1490 nM
IC50 [21]: 775 nM
IC50 [22]: 1570 nM
IC50 [23]: 4570 nM
IC50 [24]: 2010 nM
IC50 [25]: 261 nM
IC50 [26]: 14.6 nM

COc1cc2c(Nc3ccc(F)c(Cl)c3)ncnc2cc1OCCCCN(C)C [Compound 37, 4-(3-chloro-4-fluoroanilino)-6-methoxy-7-(4-(dimethylamino)-butoxy)quinazoline]
IC50 [1]: 5860 nM
MTD [2]: 250 to 500 mg/kg
IC50 [3]: 1770 nM
IC50 [4]: 30.4 nM
IC50 [5]: 27.7 nM
IC50 [6]: 15.9 nM
IC50 [7]: 29.5 nM
IC50 [8]: 0.6 nM
IC50 [9]: 98.5 nM
IC50 [10]: 8.7 nM
IC50 [11]: 5750 nM
IC50 [12]: 4020 nM
IC50 [13]: 39.6 nM
IC50 [14]: 134 nM
IC50 [15]: 78.2 nM
IC50 [16]: 2160 nM
IC50 [17]: 2090 nM
IC50 [18]: 189 nM
IC50 [19]: 2500 nM
IC50 [20]: 1550 nM
IC50 [21]: 562 nM
IC50 [22]: 1090 nM
IC50 [23]: 5590 nM
IC50 [24]: 1720 nM
IC50 [25]: 312 nM
IC50 [26]: 15.8 nM

COc1cc2c(Nc3ccc(F)c(Cl)c3)ncnc2cc1OCCCN(C)C [Compound 38, 4-(3-chloro-4-fluoroanilino)-6-methoxy-7-(3-(dimethylamino)-propoxy)quinazoline]
IC50 [1]: 5790 nM
MTD [2]: 125 to 250 mg/kg
IC50 [3]: 2360 nM
IC50 [4]: 35.6 nM
IC50 [5]: 28.9 nM
IC50 [6]: 17.6 nM
IC50 [7]: 26.5 nM
IC50 [8]: 0.7 nM
IC50 [9]: 101 nM
IC50 [10]: 7.7 nM
IC50 [11]: 5930 nM
IC50 [12]: 3850 nM
IC50 [13]: 45.2 nM
IC50 [14]: 115 nM
IC50 [15]: 178 nM
IC50 [16]: 2260 nM
IC50 [17]: 2060 nM
IC50 [18]: 268 nM
IC50 [19]: 2660 nM
IC50 [20]: 1560 nM
IC50 [21]: 621 nM
IC50 [22]: 1460 nM
IC50 [23]: 5940 nM
IC50 [24]: 2150 nM
IC50 [25]: 325 nM
IC50 [26]: 19.8 nM

COc1cc2c(Nc3ccc(F)c(Cl)c3)ncnc2cc1OCCCN1CCCC1 [Compound 39, 4-(3-chloro-4-fluoroanilino)-6-methoxy-7-(3-(pyrrolidin-1-yl)propoxy)quinazoline]
IC50 [1]: 5250 nM
MTD [2]: 62.5 to 125 mg/kg
IC50 [3]: 2660 nM
IC50 [4]: 34.6 nM
IC50 [5]: 19.6 nM
IC50 [6]: 18.9 nM
IC50 [7]: 18.8 nM
IC50 [8]: 0.2 nM
IC50 [9]: 121 nM
IC50 [10]: 6.6 nM
IC50 [11]: 5750 nM
IC50 [12]: 4520 nM
IC50 [13]: 45.7 nM
IC50 [14]: 186 nM
IC50 [15]: 197 nM
IC50 [16]: 2310 nM
IC50 [17]: 1320 nM
IC50 [18]: 258 nM
IC50 [19]: 2870 nM
IC50 [20]: 1750 nM
IC50 [21]: 510 nM
IC50 [22]: 2260 nM
IC50 [23]: 5660 nM
IC50 [24]: 2050 nM
IC50 [25]: 297 nM
IC50 [26]: 10.2 nM

COc1cc2c(Nc3ccc(F)c(Cl)c3)ncnc2cc1OCCCCN1CCCC1 [Compound 40, 4-(3-chloro-4-fluoroanilino)-6-methoxy-7-(4-(pyrrolidin-1-yl)butoxy)quinazoline]
IC50 [1]: 5320 nM
MTD [2]: 125 to 250 mg/kg
IC50 [3]: 2400 nM
IC50 [4]: 39.8 nM
IC50 [5]: 28.4 nM
IC50 [6]: 18.7 nM
IC50 [7]: 12.4 nM
IC50 [8]: 0.1 nM
IC50 [9]: 113 nM
IC50 [10]: 7.8 nM
IC50 [11]: 5460 nM
IC50 [12]: 3690 nM
IC50 [13]: 56.4 nM
IC50 [14]: 93 nM
IC50 [15]: 247 nM
IC50 [16]: 2460 nM
IC50 [17]: 1190 nM
IC50 [18]: 241 nM
IC50 [19]: 2330 nM
IC50 [20]: 1810 nM
IC50 [21]: 605 nM
IC50 [22]: 1560 nM
IC50 [23]: 5880 nM
IC50 [24]: 1990 nM
IC50 [25]: 306 nM
IC50 [26]: 17.3 nM
